Source: patent publication US20150291598A1 (NOVARTIS AG, priority 2012, published 2015)

test system: P. falciparum (NF54 or 3D7 strain); test: Assay for P. falciparum proliferation in infected human blood cells (SYBR Green); format: cell-based, Plasmodium falciparum; details: Plasmodium falciparum, Erythrocyte, 72 h, NF54 or 3D7 infected human erythrocytes, 72 hours; read-out: EC50 (nM), inhibitory efficacy in delaying P. falciparum proliferation in infected human blood cells
How it was run: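 NF54 or 3D7 parasites in O+ human erythrocytes at 2.5% hematocrit and 0.3% parasitemia final, exposed to compounds 72 h at 37 °C under 93% N2/4% CO2/3% O2.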

EC50 [nM]	Structure (SMILES)
34	CN(C(=O)c1cn2c(-c3ccc(-c4ccn[nH]4)cc3)cnc2cn1)c1ccc(C#N)cc1 [Compound 481, N-(4-cyanophenyl)-N-methyl-3-[4-(1H-pyrazol-5-yl)phenyl]imidazo[1,2-a]pyrazine-6-carboxamide]
9	CNc1nnc(-c2ccc(-c3cnc4cnc(C(=O)N(C)c5ccc(Cl)cc5)cn34)cc2)o1 [Compound 483, N-(4-chlorophenyl)-N-methyl-3-{4-[5-(methylamino)-1,3,4-oxadiazol-2-yl]phenyl}imidazo[1,2-a]pyrazine-6-carboxamide]
20	CN(C(=O)c1cn2c(-c3ccc(-c4cc[nH]n4)cc3)cnc2cn1)c1ccc(C#N)cc1 [Compound 484, N-(4-cyanophenyl)-N-methyl-3-[4-(1H-pyrazol-3-yl)phenyl]imidazo[1,2-a]pyrazine-6-carboxamide]
54	CC(=O)Nc1ccc(-c2cnc3cnc(C(=O)N(C)c4ccc(C#N)cc4)cn23)cc1 [Compound 485, N-(4-cyanophenyl)-3-(4-acetamidophenyl)-N-methylimidazo[1,2-a]pyrazine-6-carboxamide]
522	CN(C(=O)c1cn2c(-c3ccc4c(cnn4C)c3)cnc2cn1)c1ccc(Cl)nc1 [Compound 489, N-(6-chloropyridin-3-yl)-N-methyl-3-(1-methyl-1H-indazol-5-yl)imidazo[1,2-a]pyrazine-6-carboxamide]
293	CN(C(=O)c1cn2c(-c3ccc(C(F)(F)F)cc3)cnc2cn1)c1cc(F)ccn1 [Compound 490, N-(4-fluoropyridin-2-yl)-N-methyl-3-[4-(trifluoromethyl)phenyl]imidazo[1,2-a]pyrazine-6-carboxamide]
377	COc1ncccc1N(C)C(=O)c1cn2c(-c3ccc(C(F)(F)F)cc3)cnc2cn1 [Compound 492, N-(2-methoxypyridin-3-yl)-N-methyl-3-[4-(trifluoromethyl)phenyl]imidazo[1,2-a]pyrazine-6-carboxamide]
529	CN(C(=O)c1cn2c(-c3ccc(-c4nncs4)cc3)cnc2cn1)c1ccc(C#N)cc1 [Compound 493, N-(4-cyanophenyl)-N-methyl-3-[4-(1,3,4-thiadiazol-2-yl)phenyl]imidazo[1,2-a]pyrazine-6-carboxamide]
3350	O=C(c1cn2c(-c3ccc(C(F)(F)F)cc3)cnc2cn1)N1CCS(=O)(=O)c2ccccc21 [Compound 494, (1,1-dioxido-2H-benzo[b][1,4]thiazin-4(3H)-yl)(3-(4-(trifluoromethyl)phenyl)imidazo[1,2-a]pyrazin-6-yl)methanone]
2840	CN(C(=O)c1cn2c(-c3ccc(C(F)(F)F)cc3)cnc2cn1)c1cnc(Cl)s1 [Compound 496, N-(2-chloro-1,3-thiazol-5-yl)-N-methyl-3-[4 (trifluoromethyl)phenyl]imidazo[1,2-a]pyrazine-6-carboxamide]
> 9320	O=C1CN(C(=O)c2cn3c(-c4ccc(C(F)(F)F)cc4)cnc3cn2)c2ccccc2N1 [Compound 497, 4-({3-[4-(trifluoromethyl)phenyl]imidazo[1,2-a]pyrazin-6-yl}carbonyl)-1,2,3,4-tetrahydroquinoxalin-2-one]
5690	CN(C(=O)c1cncnc1)c1cn2c(-c3ccc(C(F)(F)F)cc3)cnc2cn1 [Compound 498, N-methyl-N-{3-[4-(trifluoromethyl)phenyl]imidazo[1,2-a]pyrazin-6-yl}pyrimidine-5-carboxamide]
4510	CN(C(=O)c1cn2c(-c3ccc(C(F)(F)F)cc3)cnc2cn1)c1ccc(-c2ccccc2)nc1 [Compound 499, N-methyl-N-(6-phenylpyridin-3-yl)-3-[4-(trifluoromethyl)phenyl]imidazo[1,2-a]pyrazine-6-carboxamide]
353	CN(C(=O)c1cn2c(-c3ccc(C(F)(F)F)cc3)cnc2cn1)c1ccc(C(F)(F)F)cc1 [Compound 500, N-methyl-N,3-bis[4-(trifluoromethyl)phenyl]imidazo[1,2-a]pyrazine-6-carboxamide]
1450	CN(C(=O)c1cn2c(-c3ccc(C(F)(F)F)cc3)cnc2cn1)c1ccc(S(C)(=O)=O)cc1 [Compound 501, N-(4-methanesulfonylphenyl)-N-methyl-3-[4-(trifluoromethyl)phenyl]imidazo[1,2-a]pyrazine-6-carboxamide]
60	COc1cc(C#N)ccc1N(C)C(=O)c1cn2c(-c3ccc(C(F)(F)F)cc3)cnc2cn1 [Compound 503, N-(4-cyano-2-methoxyphenyl)-N-methyl-3-[4-(trifluoromethyl)phenyl]imidazo[1,2-a]pyrazine-6-carboxamide]

The next lines start with the compound.

Structure (SMILES)	EC50 [nM]
Cc1ccc(-c2cnc3cnc(C(=O)N(C)c4ccc(Cl)cc4)cn23)cc1 [Compound 432, N-(4-chlorophenyl)-N-methyl-3-(4-methylphenyl)imidazo[1,2-a]pyrazine-6-carboxamide]	79
CN(C(=O)c1cn2c(-c3ccc(OC(F)F)cc3)cnc2cn1)c1ccc(F)cc1 [Compound 433, 3-[4-(difluoromethoxy)phenyl]-N-(4-fluorophenyl)-N-methylimidazo[1,2-a]pyrazine-6-carboxamide]	31
CN(C(=O)c1cn2c(-c3ccc(C(F)(F)F)cc3)cnc2cn1)c1ncc(Br)cn1 [Compound 434, N-(5-bromopyrimidin-2-yl)-N-methyl-3-[4-(trifluoromethyl)phenyl]imidazo[1,2-a]pyrazine-6-carboxamide]	7090
CN(C(=O)c1cn2c(-c3ccc(C(F)(F)F)cc3)cnc2cn1)c1ccc(Cl)cn1 [Compound 435, N-(5-chloropyridin-2-yl)-N-methyl-3-[4-(trifluoromethyl)phenyl]imidazo[1,2-a]pyrazine-6-carboxamide]	214
CC(C)Oc1ccc(N(C)C(=O)c2cn3c(-c4ccc(C(F)(F)F)cc4)cnc3cn2)cc1 [Compound 436, N-methyl-N-[4-(propan-2-yloxy)phenyl]-3-[4-(trifluoromethyl)phenyl]imidazo[1,2-a]pyrazine-6-carboxamide]	9300
CN(C)c1ccc(-c2cnc3cnc(CN(C)c4ccc(C#N)cc4)cn23)cc1 [Compound 437, 4-[({3-[4-(dimethylamino)phenyl]imidazo[1,2-a]pyrazin-6-yl}methyl)(methyl)amino]benzonitrile]	176
CN(C)c1cccc(-c2cnc3cnc(C(=O)N(C)c4ccc(C#N)cc4)cn23)c1 [Compound 438, N-(4-cyanophenyl)-3-[3-(dimethylamino)phenyl]-N-methylimidazo[1,2-a]pyrazine-6-carboxamide]	> 10000
CN(C(=O)c1cn2c(-c3ccc(Cl)nc3)cnc2cn1)c1ccc(C#N)cc1 [Compound 439, 3-(6-chloropyridin-3-yl)-N-(4-cyanophenyl)-N-methylimidazo[1,2-a]pyrazine-6-carboxamide]	2760
COc1cccc(N(C)C(=O)c2cn3c(-c4ccc(C(F)(F)F)cc4)cnc3cn2)c1 [Compound 440, N-(3-methoxyphenyl)-N-methyl-3-[4-(trifluoromethyl)phenyl]imidazo[1,2-a]pyrazine-6-carboxamide]	140
COc1ccc(-c2cnc3cnc(C(=O)N(C)c4ccc(C#N)cc4)cn23)c(C)c1 [Compound 441, N-(4-cyanophenyl)-3-(4-methoxy-2-methylphenyl)-N-methylimidazo[1,2-a]pyrazine-6-carboxamide]	6500
O=C(Nc1nc2cccc(Cl)c2s1)c1cn2c(-c3ccc(C(F)(F)F)cc3)cnc2cn1 [Compound 442, N-(7-chloro-1,3-benzothiazol-2-yl)-3-[4-(trifluoromethyl)phenyl]imidazo[1,2-a]pyrazine-6-carboxamide]	604
CNc1nnc(-c2ccc(-c3cnc4cnc(C(=O)N(C)c5ccc(C#N)cc5)cn34)cc2)s1 [Compound 476, N-(4-cyanophenyl)-N-methyl-3-{4-[5-(methylamino)-1,3,4-thiadiazol-2-yl]phenyl}imidazo[1,2-a]pyrazine-6-carboxamide]	9
CNc1nnc(-c2ccc(-c3cnc4cnc(C(=O)N(C)c5ccc(F)cc5)cn34)cc2)o1 [Compound 478, N-(4-fluorophenyl)-N-methyl-3-{4-[5-(methylamino)-1,3,4-oxadiazol-2-yl]phenyl}imidazo[1,2-a]pyrazine-6-carboxamide]	31
CN(Cc1cn2c(-c3ccc(OC(F)F)cc3)cnc2cn1)c1ccc(C#N)cc1 [Compound 479, 4-[({3-[4-(difluoromethoxy)phenyl]imidazo[1,2-a]pyrazin-6-yl}methyl)(methyl)amino]benzonitrile]	35
CN(C(=O)c1cn2c(-c3ccc4c(cnn4C)c3)cnc2cn1)c1ccc(Cl)cc1 [Compound 480, N-(4-chlorophenyl)-N-methyl-3-(1-methyl-1H-indazol-5-yl)imidazo[1,2-a]pyrazine-6-carboxamide]	25
CN(C(=O)c1cn2c(-c3ccc(C(F)(F)F)cc3)cnc2cn1)c1ccc(C#N)c(Cl)c1 [Compound 502, N-(3-chloro-4-cyanophenyl)-N-methyl-3-[4-(trifluoromethyl)phenyl]imidazo[1,2-a]pyrazine-6-carboxamide]	2000

same assay, conditions: Plasmodium falciparum, Erythrocyte, 72 h, read-out: EC50 (nM), inhibitory efficacy in delaying P. falciparum proliferation in infected human blood cells

Structure (SMILES)	EC50 [nM]
O=C(Nc1ccc(C(F)(F)F)cc1)c1cn2c(-c3ccc(C(F)(F)F)cc3)cnc2cn1 [Compound 445, N,3-bis[4-(trifluoromethyl)phenyl]imidazo[1,2-a]pyrazine-6-carboxamide]	> 10000

same assay, conditions: Plasmodium falciparum, Erythrocyte, infected human red blood cells; read-out: EC50, P. falciparum Proliferation Assay

EC50 [nM]	Structure (SMILES)
< 50	CNc1nnc(-c2ccc(-c3cnc4cnc(C(=O)N(C)c5ccc(F)cc5)cn34)cc2)o1 [Compound 478, N-(4-fluorophenyl)-N-methyl-3-{4-[5-(methylamino)-1,3,4-oxadiazol-2-yl]phenyl}imidazo[1,2-a]pyrazine-6-carboxamide]
< 50	CNc1nnc(-c2ccc(-c3cnc4cnc(C(=O)N(C)c5ccc(Cl)cc5)cn34)cc2)o1 [Compound 483, N-(4-chlorophenyl)-N-methyl-3-{4-[5-(methylamino)-1,3,4-oxadiazol-2-yl]phenyl}imidazo[1,2-a]pyrazine-6-carboxamide]
